Results reported in ChEMBL document CHEMBL4152373 (Bioorg Med Chem, 2018).
Active and inactive are the calls of the source. The calls are words filed in the database; no cut-off is given here.

How the values were obtained:
[1] = Octanol-PBS buffer partition coefficient, log D of the compound at pH 7.4 by HPLC method
Rattus norvegicus [2] = assay: Unbound clearance in Sprague-Dawley rat at 1 mg/kg, iv administered as single dose by LC-MS/MS analysis; type: ADME, organism-based; conditions: in vivo
[3] = target: T1, Glucose-dependent insulinotropic receptor (Homo sapiens) (UniProt Q8TDV5); assay: Agonist activity at GPR119 (unknown origin) at 10 uM by cAMP accumulation based assay relative to control; type: functional
T1 sequence (whole entry): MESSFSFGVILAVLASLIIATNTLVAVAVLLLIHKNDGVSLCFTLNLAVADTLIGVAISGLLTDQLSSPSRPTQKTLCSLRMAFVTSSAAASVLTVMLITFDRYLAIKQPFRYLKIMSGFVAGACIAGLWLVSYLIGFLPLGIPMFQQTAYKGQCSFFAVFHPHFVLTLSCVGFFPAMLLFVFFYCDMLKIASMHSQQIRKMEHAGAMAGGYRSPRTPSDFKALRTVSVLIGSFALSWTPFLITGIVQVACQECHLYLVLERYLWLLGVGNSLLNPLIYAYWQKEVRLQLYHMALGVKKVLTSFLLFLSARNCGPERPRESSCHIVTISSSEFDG

Rattus norvegicus [4] = assay: Dose normalized unbound AUC in Sprague-Dawley rat at 3 mg/kg, po administered via gavage as single dose by LC-MS/MS analysis; type: ADME, organism-based; conditions: in vivo
[5] = target: Hydroxycarboxylic acid receptor 3 (Homo sapiens) (UniProt P49019); assay: Antagonist activity at GPR109b (unknown origin) at 10 uM by aequorin based assay relative to control; type: functional
Mus musculus = assay: Antidiabetic activity in FFA2R knock-out C57Bl/6J mouse assessed as inhibition of blood glucose AUC (0 to 120 mins) at […], po treated prior to glucose challenge by OGTT; type: functional, organism-based
[6] = target: T2, Gastric inhibitory polypeptide receptor (Homo sapiens) (UniProt P48546); conditions: 10 uM
T2 sequence (whole entry): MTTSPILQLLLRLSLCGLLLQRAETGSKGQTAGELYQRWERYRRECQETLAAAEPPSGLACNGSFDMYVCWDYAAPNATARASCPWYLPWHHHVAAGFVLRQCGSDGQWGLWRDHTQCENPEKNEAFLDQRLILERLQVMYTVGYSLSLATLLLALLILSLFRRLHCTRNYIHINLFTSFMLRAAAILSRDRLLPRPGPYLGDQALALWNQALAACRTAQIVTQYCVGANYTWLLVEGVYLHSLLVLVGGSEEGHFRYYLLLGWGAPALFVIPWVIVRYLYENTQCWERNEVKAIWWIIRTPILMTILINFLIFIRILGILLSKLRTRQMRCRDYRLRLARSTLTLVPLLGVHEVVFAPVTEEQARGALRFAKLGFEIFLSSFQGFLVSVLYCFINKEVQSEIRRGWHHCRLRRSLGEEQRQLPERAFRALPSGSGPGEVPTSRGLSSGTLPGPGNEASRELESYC
Description: Antagonist activity at GIPR (unknown origin) at 10 uM by cAMP accumulation based assay relative to control

[7] = target: Free fatty acid receptor 1 (Homo sapiens) (UniProt O14842); assay: Antagonist activity at FFA1R (unknown origin) at 10 uM by aequorin based assay relative to control; type: functional
[8] = Half life in Sprague-Dawley rat at 1 mg/kg, iv administered as single dose by LC-MS/MS analysis; type: ADME, organism-based; conditions: in vivo
[9] = target: Hydroxycarboxylic acid receptor 2 (Homo sapiens) (UniProt Q8TDS4); assay: Antagonist activity at GPR109a (unknown origin) at 10 uM by aequorin based assay relative to control; type: functional
Hydroxycarboxylic acid receptor 2 (Homo sapiens), sequence (Q8TDS4 whole entry): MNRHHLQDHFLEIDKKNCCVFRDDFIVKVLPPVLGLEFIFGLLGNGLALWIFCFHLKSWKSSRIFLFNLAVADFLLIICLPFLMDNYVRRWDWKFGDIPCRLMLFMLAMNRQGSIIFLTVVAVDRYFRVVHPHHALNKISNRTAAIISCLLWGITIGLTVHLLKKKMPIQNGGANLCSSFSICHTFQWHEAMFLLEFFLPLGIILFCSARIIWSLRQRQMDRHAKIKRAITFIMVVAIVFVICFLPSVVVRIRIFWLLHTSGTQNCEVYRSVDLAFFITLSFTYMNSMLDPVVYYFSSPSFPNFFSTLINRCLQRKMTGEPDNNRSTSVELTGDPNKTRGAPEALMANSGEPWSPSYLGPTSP

Hydroxycarboxylic acid receptor 3 (Homo sapiens), sequence (P49019 whole entry): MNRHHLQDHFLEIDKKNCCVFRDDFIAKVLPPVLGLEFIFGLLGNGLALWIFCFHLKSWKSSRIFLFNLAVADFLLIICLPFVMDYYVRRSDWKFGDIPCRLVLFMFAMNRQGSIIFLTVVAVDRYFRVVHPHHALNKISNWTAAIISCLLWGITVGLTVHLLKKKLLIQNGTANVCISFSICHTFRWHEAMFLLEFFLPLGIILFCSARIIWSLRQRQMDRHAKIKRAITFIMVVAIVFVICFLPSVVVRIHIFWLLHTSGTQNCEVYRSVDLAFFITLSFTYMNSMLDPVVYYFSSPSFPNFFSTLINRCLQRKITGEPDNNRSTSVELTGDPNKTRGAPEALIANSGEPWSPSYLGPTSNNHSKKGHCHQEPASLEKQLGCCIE
Free fatty acid receptor 1 (Homo sapiens), sequence (O14842 whole entry): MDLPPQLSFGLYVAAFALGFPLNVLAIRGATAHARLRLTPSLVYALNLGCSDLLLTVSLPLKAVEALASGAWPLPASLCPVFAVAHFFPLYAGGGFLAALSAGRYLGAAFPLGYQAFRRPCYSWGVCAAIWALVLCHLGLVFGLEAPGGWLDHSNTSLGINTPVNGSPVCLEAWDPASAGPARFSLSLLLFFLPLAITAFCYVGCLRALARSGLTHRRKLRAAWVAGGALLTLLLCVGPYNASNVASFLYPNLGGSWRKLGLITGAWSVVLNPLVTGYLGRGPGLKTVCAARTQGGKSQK

- logD [1]: 2.6
- CL free (Rattus norvegicus [2]): 2617 mL/min/kg
- Activity [3]: < 10%
- fAUC/dose (Rattus norvegicus [4]): 0.29 µM·min
- inhibition [5]: 22%
- inhibition [6]: < 10%
- inhibition [7]: 13%
- half-life [8]: 4 h
- inhibition [9]: < 10%
Compound: COc1ccc(-c2ccccc2-c2csc(N(C(=O)[C@@H](CC(=O)O)CC3CCCC3)C3CC3)n2)cn1
- inhibition (Mus musculus): Active
